Reference: US6806230B1, “Pyrimidine derivatives and herbicides containing them” (Kumiai Chemical Industry Co., Ltd., priority 1999, dated 2004)

Legend:
Format in all cases: in vivo
barnyard grass (Ec) [1] = experiment: Test Example 2: herbicidal effects by upland soil treatment; set-up: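 0-5 growth inhibition grade; 5 = over 90%; 4 = 70-90%; 3 = 50-70%; 2 = 30-50%; 1 = 10-30%; 0 = under 10%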; conditions: dose 100 g active ingredient per 10 ares, examined on the 21st day after treatment; for herbicidal effects, Ec (barnyard grass): standards of Table 44
In short: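 Pre-emergence test: barnyard grass and green foxtail sown in upland soil, then soil surface sprayed with wettable-powder formulation at 100 g active ingredient per 10 ares (100 l per 10 ares). Grown in greenhouse; herbicidal effect scored on a rating scale 21 days after treatment.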

monochoria (Mo) [2] = experiment: Test Example 1: herbicidal effects by flooded paddy field treatment; set-up: herbicidal effects, Mo (monochoria):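 0-5 growth inhibition grade; 5 = over 90%; 4 = 70-90%; 3 = 50-70%; 2 = 30-50%; 1 = 10-30%; 0 = under 10%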; conditions: for Herbicidal effect index, Mo: dose 100 gai/10a, examined on 21st day after treatment, index 0-5 per Table 44; for herbicidal effects, Mo (monochoria): dose 100 g active ingredient per 10 ares, examined on the 21st day after treatment, standards of Table 44;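 for Herbicidal effect index, Mo: 0-5 growth inhibition grade; 5 = over 90%; 4 = 70-90%; 3 = 50-70%; 2 = 30-50%; 1 = 10-30%; 0 = under 10%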
In short: (§1)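 Flooded paddy pre-emergence test: sowing into puddled soil under 3 cm water, then dropwise water-surface treatment the following day with diluted wettable powder at 100 g active ingredient per 10 ares. Greenhouse cultivation followed, and weeds were rated against a standard scale at 21 days.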

green foxtail (Se) = experiment: Test Example 2: herbicidal effects by upland soil treatment; conditions: dose 100 g active ingredient per 10 ares, examined on the 21st day after treatment, standards of Table 44;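 note: 0-5 growth inhibition grade; 5 = over 90%; 4 = 70-90%; 3 = 50-70%; 2 = 30-50%; 1 = 10-30%; 0 = under 10%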
Description: In a 80 cm^2 plastic pot, upland soil was filled, and seeds of barnyard grass (Ec) and green foxtail (Se) were sown and covered with soil. A wettable powder prepared in accordance with Formulation Example 1 was diluted with water and uniformly applied to the soil surface by means of a small size spray at a rate of 100 l per 10 ares, so that the dose of the active ingredient would be 100 g per 10 ares. Thereafter, cultivation was carried out in a green house, and on the 21st day after the treatment, the herbicidal effects were examined in accordance with the standards as identified in Table 44.

barnyard grass (Eo) [3] = experiment: Test Example 1: herbicidal effects by flooded paddy field treatment; set-up: herbicidal effects, Eo (barnyard grass):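 0-5 growth inhibition grade; 5 = over 90%; 4 = 70-90%; 3 = 50-70%; 2 = 30-50%; 1 = 10-30%; 0 = under 10%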; conditions: for Herbicidal effect index, Eo: dose 100 gai/10a, examined on 21st day after treatment, index 0-5 per Table 44; for herbicidal effects, Eo (barnyard grass): dose 100 g active ingredient per 10 ares, examined on the 21st day after treatment, standards of Table 44;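 for Herbicidal effect index, Eo: 0-5 growth inhibition grade; 5 = over 90%; 4 = 70-90%; 3 = 50-70%; 2 = 30-50%; 1 = 10-30%; 0 = under 10%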
In short: as §1

barnyard grass (Eo) [4] = experiment: Test Example 4: selectivity for a crop plant by flooded paddy field treatment; set-up: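 0-5 growth inhibition grade; 5 = over 90%; 4 = 70-90%; 3 = 50-70%; 2 = 30-50%; 1 = 10-30%; 0 = under 10%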; conditions: barnyard grass, dose 25 gai/10a, 21st day after treatment, index per Table 44
In short: (§2)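 Steps: fill pot with paddy soil and puddle; sow weed seeds; transplant rice at second-leaf stage; flood to 3 cm. Next day, drip the water-diluted wettable powder onto the water (25 g a.i./10 ares). Grow in greenhouse and rate herbicidal effect on day 21.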

rice (Or) = experiment: as above; set-up: scale not given here; conditions: rice transplanted at second leaf stage, dose 25 gai/10a, 21st day after treatment, index per Table 44
In short: as §2

monochoria (Mo) [5] = experiment: as above; set-up: scale not given here; conditions: monochoria, dose 25 gai/10a, 21st day after treatment, index per Table 44
In short: as §2

barnyard grass (Ec) [6] = experiment: Test Example 3: herbicidal effects by foliage treatment in upland field; set-up: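 0-5 growth inhibition grade; 5 = over 90%; 4 = 70-90%; 3 = 50-70%; 2 = 30-50%; 1 = 10-30%; 0 = under 10%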; conditions: dose 100 g active ingredient per 10 ares, examined on the 14th day after treatment
In short: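 Barnyard grass and green foxtail were grown in upland soil for 2 weeks in a greenhouse. A water-diluted wettable powder was sprayed over the foliage at 100 l per 10 ares, giving 100 g active ingredient per 10 ares. Herbicidal effect was scored on day 14 after treatment.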

SMILES	herbicidal effects, Ec (barnyard grass) (barnyard grass (Ec) [1])	Herbicidal effect index, Mo (monochoria (Mo) [2])	herbicidal effects, Se (green foxtail) (green foxtail (Se))	Herbicidal effect index, Eo (barnyard grass (Eo) [3])	herbicidal effects, Mo (monochoria) (monochoria (Mo) [2])	herbicidal effects, Eo (barnyard grass) (barnyard grass (Eo) [3])	Ec (herbicidal effects, index) (barnyard grass (Ec) [1])	Eo (herbicidal effect index) (barnyard grass (Eo) [4])	Or (herbicidal effect index on crop) (rice (Or))	Mo (herbicidal effect index) (monochoria (Mo) [5])	Ec (herbicidal effects, index) (barnyard grass (Ec) [6])
CC(Oc1ccccc1)C(=O)N(C)C(c1cncnc1C(F)(F)F)C(C)C (mixture of isomers) [Compound 1-115]	5	5	5	5	–	–	–	–	–	–	–
COC(C(=O)N(C)C(c1cncnc1C(F)(F)F)C(C)C)c1ccc(Cl)cc1 (mixture of isomers) [Compound 1-155]	4	–	4	–	5	5	–	–	–	–	–
CCN(C(=O)Cc1cccc(F)c1)C(c1cncnc1C(F)(F)F)C(C)C (racemic) [1-173]	5	–	5	–	5	5	–	–	–	–	–
CCN(C(=O)Cc1ccc(C(F)(F)F)cc1)C(c1cncnc1C(F)(F)F)C(C)C (racemic) [1-174]	5	–	5	–	5	5	–	–	–	–	–
CC(C)C(c1cncnc1C(F)(F)F)N(C)C(=O)Oc1ccc(F)cc1 (racemic) [1-177]	4	–	4	–	5	5	–	–	–	–	–
CN(C(=O)Cc1ccc(Cl)cc1)C(c1ccccc1)c1cncnc1C(F)(F)F (racemic) [1-187]	5	–	5	–	5	5	–	–	–	–	–
CN(C(=O)Cc1ccc(F)cc1)C(c1ccc(Cl)cc1)c1cncnc1C(F)(F)F (racemic) [1-222]	5	–	5	–	5	5	–	–	–	–	–
C#CCN(C(=O)Cc1ccc(Cl)s1)C(c1cncnc1C(F)(F)F)C(C)C (racemic) [2-74]	–	–	–	–	5	5	5	5	1	5	4
CCc1ncncc1C(C(C)C)N(C)C(=O)Cc1ccc(Cl)s1 (racemic) [2-75]	–	–	–	–	5	5	5	5	1	5	5
CCc1ncncc1C(C(C)C)N(C)S(=O)(=O)c1ccccc1 (racemic) [4-2]	–	–	–	–	5	5	5	5	1	5	5
COc1ccc(SC(=O)N(C)C(c2cncnc2C(F)(F)F)C(C)C)cc1 (racemic) [Compound 1-11]	5	–	5	–	–	–	–	–	–	–	–
CCC(c1cncnc1C(F)(F)F)N(C)C(=O)Cc1ccccc1 (racemic) [Compound 1-32]	5	5	5	5	–	–	–	–	–	–	–
CN(C(=O)Cc1ccc(F)cc1)C(c1cncnc1C(F)(F)F)C1CC1 (racemic) [Compound 1-35]	5	5	5	5	–	–	–	–	–	–	–
CC(C)C(c1cncnc1)N(C)C(=O)Cc1ccc(Cl)cc1 (racemic) [Compound 1-90]	5	5	5	5	–	–	–	–	–	–	–
CC(C)C(c1cncnc1C1CC1)N(C)C(=O)Cc1ccc(F)cc1 (racemic) [Compound 1-101]	5	5	5	5	–	–	–	–	–	–	–
Cc1ccc(CC(=O)N(C)C(c2cncnc2C2CC2)C(C)C)cc1 (racemic) [Compound 1-102]	5	5	5	5	–	–	–	–	–	–	–
CCCC(c1cncnc1C(F)(F)F)N(C)C(=O)Cc1ccc(Cl)cc1 (racemic) [Compound 1-114]	5	5	5	5	–	–	–	–	–	–	–
CC(C)c1ncncc1C(C(C)C)N(C)C(=O)Cc1ccccc1 (racemic) [Compound 1-128]	5	–	5	–	4	5	–	–	–	–	–
CN(C(=O)Cc1ccc(F)cc1)C(c1cncnc1C(F)(F)F)C1CCCC1 (racemic) [Compound 1-138]	5	–	5	–	5	5	–	–	–	–	–
CC(C)C(c1cncnc1C(F)(F)F)N(C)C(=O)Cc1cccc(F)c1F (racemic) [Compound 1-148]	5	–	5	–	5	5	–	–	–	–	–
CSc1ncncc1C(C(C)C)N(C)C(=O)Cc1ccc(Cl)cc1 (racemic) [Compound 1-151]	5	–	5	–	5	5	–	–	–	–	–
Cc1ncncc1C(N(C)C(=O)Cc1ccccc1)C(C)(C)C (racemic) [Compound 1-159]	5	–	5	–	5	5	–	–	–	–	–
Cc1ncncc1C(N(C)C(=O)Cc1ccc(F)cc1)C(C)(C)C (racemic) [Compound 1-160]	5	–	5	–	5	5	–	–	–	–	–
CC(C)C(c1cncnc1C(F)F)N(C)C(=O)Cc1ccccc1 (racemic) [Compound 1-163]	5	–	5	–	5	5	–	–	–	–	–
CC(C)C(c1cncnc1C(F)F)N(C)C(=O)Cc1ccc(Cl)cc1 (racemic) [Compound 1-165]	5	–	5	–	5	5	–	–	–	–	–
CCOC(=O)c1ncncc1C(C(C)C)N(C)C(=O)C(C)c1ccc(Cl)cc1 (single isomer, unassigned) [1-594]	–	–	–	–	5	5	5	5	1	5	5
